Target: KRasG12C (M1-K169, biotinylated on the N-terminus) (Homo sapiens (Human), UniProt P01116, G12C)
Experiment: Covalent competition assay: scintillation proximity assay (SPA) quantifying covalent modification of KRASG12C
Type: binding
Conditions: competition with radiolabeled covalent probe (Compound B/Compound A), 2 hours incubation, 10 nM KRasG12C
Summary of the method: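 Scintillation proximity readout after streptavidin bead capture (30 min) of biotinylated KRasG12C(M1-K169):GDP, 10 nM final, which was covalently labelled over 2 h by 25 nM radio-probe plus 475 nM cold probe unless blocked by compound.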

Row | IC50 [nM] | Structure (SMILES)
1 | > 5000 | C=CC(=O)N1CC2(CC(n3nc(N4CCN(CC(C)(C)O)CC45CCC5)c(-c4c(Cl)c(F)cc5[nH]ncc45)c3C)C2)C1 (single isomer, unassigned) [Example 167a, 1-(6-(4-(5-chloro-6-fluoro-1H-indazol-4-yl)-3-(8-(2-hydroxy-2-methylpropyl)-5,8-diazaspiro[3.5]nonan-5-yl)-5-methyl-1H-pyrazol-1-yl)-2-azaspiro[3.3]heptan-2-yl)prop-2-en-1-one]
2 | 31 | C=CC(=O)N1CC2(CC(n3nc(N4CCN(CC(C)(C)O)CC45CCC5)c(-c4c(Cl)c(F)cc5[nH]ncc45)c3C)C2)C1 (single isomer, unassigned) [Example 167b, 1-(6-(4-(5-chloro-6-fluoro-1H-indazol-4-yl)-3-(8-(2-hydroxy-2-methylpropyl)-5,8-diazaspiro[3.5]nonan-5-yl)-5-methyl-1H-pyrazol-1-yl)-2-azaspiro[3.3]heptan-2-yl)prop-2-en-1-one]
3 | > 5000 | C=CC(=O)N1CC2(CC(n3nc(N4CCN(C[C@@H]5COCCO5)CC45CCC5)c(-c4c(Cl)c(C)cc5[nH]ncc45)c3C)C2)C1 (single isomer, unassigned) [Example 169a]
4 | 12 | C=CC(=O)N1CC2(CC(n3nc(N4CCN(C[C@@H]5COCCO5)CC45CCC5)c(-c4c(Cl)c(C)cc5[nH]ncc45)c3C)C2)C1 (single isomer, unassigned) [Example 169b]
5 | > 50000 | C=CC(=O)N1CC2(CC(n3nc(N4CCN(CCOC)CC4(C)C)c(-c4c(Cl)c(C)cc5[nH]ncc45)c3C)C2)C1 (single isomer, unassigned) [Example 170a, 1-(6-(4-(5-chloro-6-methyl-1H-indazol-4-yl)-3-(4-(2-methoxyethyl)-2,2-dimethylpiperazin-1-yl)-5-methyl-1H-pyrazol-1-yl)-2-azaspiro[3.3]heptan-2-yl)prop-2-en-1-one]
6 | 60 | C=CC(=O)N1CC2(CC(n3nc(N4CCN(CCOC)CC4(C)C)c(-c4c(Cl)c(C)cc5[nH]ncc45)c3C)C2)C1 (single isomer, unassigned) [Example 170b, 1-(6-(4-(5-chloro-6-methyl-1H-indazol-4-yl)-3-(4-(2-methoxyethyl)-2,2-dimethylpiperazin-1-yl)-5-methyl-1H-pyrazol-1-yl)-2-azaspiro[3.3]heptan-2-yl)prop-2-en-1-one]
7 | > 5000 | C=CC(=O)N1CC2(CC(n3nc(N4CCN(C[C@@H]5COCCO5)CC45CCC5)c(-c4c(Cl)c(Cl)cc5[nH]ncc45)c3C)C2)C1 (single isomer, unassigned) [Example 171a]
8 | 8 | C=CC(=O)N1CC2(CC(n3nc(N4CCN(C[C@@H]5COCCO5)CC45CCC5)c(-c4c(Cl)c(Cl)cc5[nH]ncc45)c3C)C2)C1 (single isomer, unassigned) [Example 171b]
9 | 3900 | C=CC(=O)N1CC2(CC(n3nc(N4CCN(C[C@@H]5COCCO5)CC4(C)C)c(-c4c(Cl)c(Cl)cc5[nH]ncc45)c3C)C2)C1 (single isomer, unassigned) [Example 172a]
10 | 15 | C=CC(=O)N1CC2(CC(n3nc(N4CCN(C[C@@H]5COCCO5)CC4(C)C)c(-c4c(Cl)c(Cl)cc5[nH]ncc45)c3C)C2)C1 (single isomer, unassigned) [Example 172b]
11 | 2900 | C=CC(=O)N1CC2(CC(n3nc(N4CCN(C[C@@H]5COCCO5)C[C@]4(C)CC)c(-c4c(Cl)c(C)cc5[nH]ncc45)c3C)C2)C1 (single isomer, unassigned) [Example 173a]
12 | 5 | C=CC(=O)N1CC2(CC(n3nc(N4CCN(C[C@@H]5COCCO5)C[C@]4(C)CC)c(-c4c(Cl)c(C)cc5[nH]ncc45)c3C)C2)C1 (single isomer, unassigned) [Example 173b]
13 | > 5000 | C=C(F)C(=O)N1CC2(CC(n3nc(N4CCN(C[C@@H]5COCCO5)C[C@]4(C)CC)c(-c4c(Cl)c(C)cc5[nH]ncc45)c3C)C2)C1 (single isomer, unassigned) [Example 174a]
14 | 121 | C=C(F)C(=O)N1CC2(CC(n3nc(N4CCN(C[C@@H]5COCCO5)C[C@]4(C)CC)c(-c4c(Cl)c(C)cc5[nH]ncc45)c3C)C2)C1 (single isomer, unassigned) [Example 174b]
15 | 939 | CC[C@@]1(C)CN(C[C@@H]2COCCO2)CCN1c1nn(C2CC3(C2)CN(C(=O)/C=C/Cl)C3)c(C)c1-c1c(Cl)c(C)cc2[nH]ncc12 (single isomer, unassigned) [Example 175a]
16 | 9 | CC[C@@]1(C)CN(C[C@@H]2COCCO2)CCN1c1nn(C2CC3(C2)CN(C(=O)/C=C/Cl)C3)c(C)c1-c1c(Cl)c(C)cc2[nH]ncc12 (single isomer, unassigned) [Example 175b]
17 | 8 | C=CC(=O)N1CC2(CC(n3nc(N4CCN(CCN5CCOCC5=O)C[C@]4(C)CC)c(-c4c(Cl)c(C)cc5[nH]ncc45)c3C)C2)C1 (single isomer, unassigned) [Example 177a]

Row | IC50 [nM] | Structure (SMILES)
18 | 1700 | C=CC(=O)N1CC2(CC(n3nc(N4CCN(CCN5CCOCC5=O)C[C@]4(C)CC)c(-c4c(Cl)c(C)cc5[nH]ncc45)c3C)C2)C1 (single isomer, unassigned) [Example 177b]
19 | 3900 | C=CC(=O)N1CC2(CC(n3nc(N4CCN(CCOC)C[C@]4(C)C(F)F)c(-c4c(Cl)c(C)cc5[nH]ncc45)c3C)C2)C1 (single isomer, unassigned) [Example 178a]
20 | 48 | C=CC(=O)N1CC2(CC(n3nc(N4CCN(CCOC)C[C@]4(C)C(F)F)c(-c4c(Cl)c(C)cc5[nH]ncc45)c3C)C2)C1 (single isomer, unassigned) [Example 178b]
21 | > 5000 | C=CC(=O)N1CC2(CC(n3nc(N4CCN(CCOC)C[C@@]4(C)C(F)F)c(-c4c(Cl)c(C)cc5[nH]ncc45)c3C)C2)C1 (single isomer, unassigned) [Example 179a]
22 | 38 | C=CC(=O)N1CC2(CC(n3nc(N4CCN(CCOC)C[C@@]4(C)C(F)F)c(-c4c(Cl)c(C)cc5[nH]ncc45)c3C)C2)C1 (single isomer, unassigned) [Example 179b]
23 | > 5000 | C=CC(=O)N1CC2(CC(n3nc(N4CCN(C(C)(C)C(=O)OC)CC45CCC5)c(-c4c(Cl)c(C)cc5[nH]ncc45)c3C)C2)C1 (single isomer, unassigned) [Example 180a, methyl 2-(5-(1-(2-acryloyl-2-azaspiro[3.3]heptan-6-yl)-4-(5-chloro-6-methyl-1H-indazol-4-yl)-5-methyl-1H-pyrazol-3-yl)-5,8-diazaspiro[3.5]nonan-8-yl)-2-methylpropanoate]
24 | 17 | C=CC(=O)N1CC2(CC(n3nc(N4CCN(C(C)(C)C(=O)OC)CC45CCC5)c(-c4c(Cl)c(C)cc5[nH]ncc45)c3C)C2)C1 (single isomer, unassigned) [Example 180b, methyl 2-(5-(1-(2-acryloyl-2-azaspiro[3.3]heptan-6-yl)-4-(5-chloro-6-methyl-1H-indazol-4-yl)-5-methyl-1H-pyrazol-3-yl)-5,8-diazaspiro[3.5]nonan-8-yl)-2-methylpropanoate]
25 | 929 | C=CC(=O)N1CC2(CC(n3nc(N4CCN(C[C@@H]5COCCO5)C[C@]4(C)COC)c(-c4c(Cl)c(C)cc5[nH]ncc45)c3C)C2)C1 (single isomer, unassigned) [Example 181a]
26 | 8 | C=CC(=O)N1CC2(CC(n3nc(N4CCN(C[C@@H]5COCCO5)C[C@]4(C)COC)c(-c4c(Cl)c(C)cc5[nH]ncc45)c3C)C2)C1 (single isomer, unassigned) [Example 181b]
27 | 1400 | C=CC(=O)N1CC2(CC(n3nc(N4CCN(C[C@@H]5COCCO5)C[C@]4(C)COC)c(-c4c(Cl)c(Cl)cc5[nH]ncc45)c3C)C2)C1 (single isomer, unassigned) [Example 182a]
28 | 8 | C=CC(=O)N1CC2(CC(n3nc(N4CCN(C[C@@H]5COCCO5)C[C@]4(C)COC)c(-c4c(Cl)c(Cl)cc5[nH]ncc45)c3C)C2)C1 (single isomer, unassigned) [Example 182b]
29 | > 5000 | C=CC(=O)N1CC2(CC(n3nc(N4CCN(CCOC(F)F)CC45CCC5)c(-c4c(Cl)c(C)cc5[nH]ncc45)c3C)C2)C1 (single isomer, unassigned) [Example 183a, 1-(6-(4-(5-chloro-6-methyl-1H-indazol-4-yl)-3-(8-(2-(difluoromethoxy)ethyl)-5,8-diazaspiro[3.5]nonan-5-yl)-5-methyl-1H-pyrazol-1-yl)-2-azaspiro[3.3]heptan-2-yl)prop-2-en-1-one]
30 | 27 | C=CC(=O)N1CC2(CC(n3nc(N4CCN(CCOC(F)F)CC45CCC5)c(-c4c(Cl)c(C)cc5[nH]ncc45)c3C)C2)C1 (single isomer, unassigned) [Example 183b, 1-(6-(4-(5-chloro-6-methyl-1H-indazol-4-yl)-3-(8-(2-(difluoromethoxy)ethyl)-5,8-diazaspiro[3.5]nonan-5-yl)-5-methyl-1H-pyrazol-1-yl)-2-azaspiro[3.3]heptan-2-yl)prop-2-en-1-one]
31 | > 5000 | C=C(F)C(=O)N1CC2(CC(n3nc(N4CCN(C[C@@H]5COCCO5)C[C@]4(C)COC)c(-c4c(Cl)c(Cl)cc5[nH]ncc45)c3C)C2)C1 (single isomer, unassigned) [Example 184a]
32 | 61 | C=C(F)C(=O)N1CC2(CC(n3nc(N4CCN(C[C@@H]5COCCO5)C[C@]4(C)COC)c(-c4c(Cl)c(Cl)cc5[nH]ncc45)c3C)C2)C1 (single isomer, unassigned) [Example 184b]
33 | 4100 | C=CC(=O)N1CC2(CC(n3nc(N4CCN(CC5COCCOC5)CC45CCC5)c(-c4c(Cl)c(C)cc5[nH]ncc45)c3C)C2)C1 (single isomer, unassigned) [Example 185a, 1-(6-(3-(8-((1,4-dioxepan-6-yl)methyl)-5,8-diazaspiro[3.5]nonan-5-yl)-4-(5-chloro-6-methyl-1H-indazol-4-yl)-5-methyl-1H-pyrazol-1-yl)-2-azaspiro[3.3]heptan-2-yl)prop-2-en-1-one]

Source: US20240317721A1, “PYRAZOLYL DERIVATIVES AS INHIBITORS OF THE KRAS MUTANT PROTEIN” (NOVARTIS AG, priority 2021, published 2024)
